Laboratory results: patent publication US6107549A, “Genetically engineered plant resistance to thiazopyr and other pyridine herbicides” (Monsanto Company, priority 1999, dated 2000)

Columns and labels:
tomato = experiment: Field test for tomato resistance; type: in vivo
Method: Field test for tomato resistance. A single field test was conducted in early summer at a Monsanto Company research farm in Jerseyville, Ill. A total of 9 transgenic lines were selected for the field study. […] The remaining 6 lines were R1 seeds selected based on high expression level and seed availability. About 400 seeds were pooled from each line based on uniformity of size and appearance, and randomly separated into 4 groups of about 100 seeds. Four parallel plots (5×20 m) were respectively sprayed with 0, 112, 336, and 673 g/ha of thiazopyr, which was then incorporated down to 7.5 cm of soil depth. The projected field use-rate for thiazopyr is about 280 g/ha. Seeds were placed in a furrow at every 5 cm distance and covered with soil. UC82B seeds were used as untransformed controls. After sowing, 13 mm of water was irrigated over the plots. […] Nevertheless, it was possible to measure thiazopyr resistance based on seedling emergence between control UC82B and the transgenic lines. […] However at 336 g/ha, #8255-30 maintained germination at 10% while UC82B declined to about 1%. […] The transgenic lines flowered, set fruit, and yielded abundant tomatoes and seeds.

RLE3 = target: T1, RLE3 (Oryctolagus cuniculus, UniProt P12337, A196R/H30K); experiment: Esterase activity of RLE3 cDNA expressed in insect cells; type: biochemical, rabbit; conditions: culture media from SF9 cells containing RLE3 cDNA
T1 construct: 19-residue synthetic ER signal peptide (design based on the homologous rat esterase, Robbi et al. 1990; Ala added after Met) (N); made in house; host or cells: Spodoptera frugiperda SF9 cells, baculovirus
T1 sequence (P12337 with tags, fused parts or gaps H30K/A196R): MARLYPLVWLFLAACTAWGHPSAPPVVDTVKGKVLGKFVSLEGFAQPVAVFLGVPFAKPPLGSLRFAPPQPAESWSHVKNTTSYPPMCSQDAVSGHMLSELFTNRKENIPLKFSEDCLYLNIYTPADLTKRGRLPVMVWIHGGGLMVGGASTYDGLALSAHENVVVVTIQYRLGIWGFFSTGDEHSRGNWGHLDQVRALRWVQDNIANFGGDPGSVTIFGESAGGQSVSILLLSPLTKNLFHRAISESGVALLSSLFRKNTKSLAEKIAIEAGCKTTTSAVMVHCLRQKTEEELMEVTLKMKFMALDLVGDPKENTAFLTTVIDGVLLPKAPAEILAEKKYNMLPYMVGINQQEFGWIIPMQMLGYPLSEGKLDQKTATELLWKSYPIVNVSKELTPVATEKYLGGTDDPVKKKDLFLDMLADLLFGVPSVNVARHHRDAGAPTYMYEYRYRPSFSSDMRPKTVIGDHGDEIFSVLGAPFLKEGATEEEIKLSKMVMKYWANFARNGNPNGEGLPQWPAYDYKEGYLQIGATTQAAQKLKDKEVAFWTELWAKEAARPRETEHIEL
Method: Esterase activity assays. Esterase activity was measured in vitro by conversion of either [^14 C]thiazopyr or [^14 C]MON 14300 to their corresponding monoacid. Pyridine-esterase activity was assayed during protein purification and from tissue extracts of transgenic plants. The homogenizing buffer for plant tissues consisted of 100 mM Tris pH 8.0, 1 mM EDTA, 1 mM DTT, and 10% glycerol in water. Plant tissues (1 g/ml buffer) including leaves, seeds, flowers, seedlings, etc. were homogenized in conical centrifuge tubes using a spinning pestle at 4° C. Following centrifugation (12,000× g), the supernatant (250 μl) was assayed immediately for esterase activity by incubation with [^14 C]thiazopyr or [^14 C]MON 14300 (4 μg) in 0.1 M Tris pH 8.0 buffer (50 μl) at 37° C. The reaction was sampled (100 μL) at various times (0.5 to 100 hr) to generate a kinetic profile of monoacid formation. The reaction was stopped by addition of 1% trifluoroacetic acid in acetonitrile (v/v, 150 μl). Following centrifugation (12,000× g for 3 min), the supernatant was analyzed by HPLC/RAD (radioactivity detection) to resolve the monoacid from the parent herbicide and other metabolites. Control reactions in the absence of the esterase recovered un-reacted thiazopyr or MON 14300 for the duration of experiments. Esterase activity was also assayed during protein purification following a similar procedure except a single time-point (1-2 hrs) of incubation was selected within the linear range of reaction. In vitro assays also employed three commonly used calorimetric (p-nitrophenyl butyrate) or fluorescent (4-methyl umbelliferyl butyrate and 5-bromo-4-chloro-3-indolylacetate) substrates. These substrates are useful in rapidly and qualitatively detecting general esterase activity.
Expression of RLE1 and RLE3 cDNAs in insect cells. Mature rabbit liver esterases are glycoproteins which reside in the lumen of the endoplasmic reticulum (ER) (Korza et al., 1988). […]

| SMILES | germination (tomato; UC82B and #8255-30, 112 g/ha, 21 days after planting) | germination (tomato; UC82B control, 336 g/ha) | germination (tomato; UC82B control, 673 g/ha) | survival at later time points (tomato; UC82B plants that germinated at 112 and 336 g/ha) | germination (tomato; transgenic #8255-30, 336 g/ha) | germination (tomato; transgenic #8255-30, 673 g/ha) | growth at later time points (tomato; transgenic lines showing thiazopyr injury) | esterase activity against substrate (RLE3) |
| --- | --- | --- | --- | --- | --- | --- | --- | --- |
| COC(=O)c1c(C(F)F)nc(C(F)(F)F)c(C2=NCCS2)c1CC(C)C [thiazopyr] | slightly lower but still comparable germination | about 1% | no germination at all | had died due to weakening of the stem at the soil line | 10% | 4% | growth was not affected | demonstrated esterase activity |
| COC(=O)c1c(C(F)F)nc(C(F)(F)F)c(C(=O)n2cccn2)c1CC(C)C [MON 14300] | – | – | – | – | – | – | – | demonstrated esterase activity |
